The source of these data is publication PMC6717862 (Drug Design, Development and Therapy, 2019).

In experiment [1] the target is EGFR (Homo sapiens, UniProt P00533). As to the kind of experiment: In vitro enzymatic activity assay. It is filed as biochemical. Particulars: read-out: EGFR inhibition%, inhibition percentage at 1.0 μM.
The conditions of experiment [2]: hypoxia vs normoxia; cited from earlier work.

The structures appear in SMILES notation.

EGFR, sequence (P00533 25-1210): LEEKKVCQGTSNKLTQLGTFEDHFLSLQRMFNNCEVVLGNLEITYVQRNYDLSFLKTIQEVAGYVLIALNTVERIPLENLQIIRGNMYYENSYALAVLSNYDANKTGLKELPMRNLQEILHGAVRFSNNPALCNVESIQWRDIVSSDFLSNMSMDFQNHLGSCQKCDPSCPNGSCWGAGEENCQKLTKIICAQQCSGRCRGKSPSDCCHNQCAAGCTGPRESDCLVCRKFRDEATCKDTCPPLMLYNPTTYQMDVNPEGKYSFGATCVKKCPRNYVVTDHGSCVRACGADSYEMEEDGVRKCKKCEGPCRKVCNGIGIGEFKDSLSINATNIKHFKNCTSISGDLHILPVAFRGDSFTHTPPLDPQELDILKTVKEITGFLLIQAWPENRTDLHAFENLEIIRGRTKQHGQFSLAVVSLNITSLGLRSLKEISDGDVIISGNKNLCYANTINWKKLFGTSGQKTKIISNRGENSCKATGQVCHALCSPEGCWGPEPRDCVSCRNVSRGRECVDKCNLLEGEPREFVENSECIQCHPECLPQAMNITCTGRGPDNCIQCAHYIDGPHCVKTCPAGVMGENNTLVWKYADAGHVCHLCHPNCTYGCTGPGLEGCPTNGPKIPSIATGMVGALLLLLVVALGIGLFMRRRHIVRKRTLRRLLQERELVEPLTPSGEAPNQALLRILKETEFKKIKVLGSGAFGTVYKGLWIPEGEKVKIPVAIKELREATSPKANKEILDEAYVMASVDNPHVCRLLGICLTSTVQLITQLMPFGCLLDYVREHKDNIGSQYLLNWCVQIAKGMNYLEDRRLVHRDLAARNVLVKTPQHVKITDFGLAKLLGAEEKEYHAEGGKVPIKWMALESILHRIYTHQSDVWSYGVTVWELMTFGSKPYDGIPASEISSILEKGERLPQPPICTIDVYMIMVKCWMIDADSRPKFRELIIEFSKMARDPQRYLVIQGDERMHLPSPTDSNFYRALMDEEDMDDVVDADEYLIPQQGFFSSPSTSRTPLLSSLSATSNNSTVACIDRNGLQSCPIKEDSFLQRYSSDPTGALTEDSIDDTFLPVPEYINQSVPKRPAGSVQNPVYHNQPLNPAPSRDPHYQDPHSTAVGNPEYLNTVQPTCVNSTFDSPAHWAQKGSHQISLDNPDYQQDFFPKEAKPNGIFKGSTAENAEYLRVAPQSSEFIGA

Consider `COc1cc2c(Nc3ccc(OCCn4ccnc4[N+](=O)[O-])cc3)ncnc2cc1OCCCN1CCOCC1` [Compound 16d, 6-Methoxy-7-(3-morpholinopropoxy)-N-(4-(2-(2-nitro-1H-imidazol-1-yl)ethoxy)phenyl)quinazolin-4-amine], for which the inhibition at 1 µM in experiment [1] was less than 50%. Same read-out and setting: the same measure for `COCCOc1cc2ncnc(Nc3ccc(OCCn4ccnc4[N+](=O)[O-])cc3)c2cc1OCCOC` [Compound 16h, 6,7-Bis(2-methoxyethoxy)-N-(4-(2-(2-nitro-1H-imidazol-1-yl)ethoxy)phenyl)quinazolin-4-amine]: less than 50%; for `COc1cc2ncnc(Nc3ccc(OCCn4ccnc4[N+](=O)[O-])cc3)c2cc1OCCCN1CCOCC1` [Compound 16l, 7-Methoxy-6-(3-morpholinopropoxy)-N-(4-(2-(2-nitro-1H-imidazol-1-yl)ethoxy)phenyl)quinazolin-4-amine]: less than 50%. On to `Cn1c(COP(=O)(NCCBr)NCCBr)cnc1[N+](=O)[O-]` [TH-302], for which, in experiment [2], the “fold more effective in carcinoma hypoxia than in normoxia” value is 270 fold.

As a reminder, the inhibition is how much of the control response was suppressed.
